Target: human RIP1 kinase domain (2-375) (Homo sapiens (Human), UniProt Q13546)
Assay: RIP1 kinase inhibition biochemical assay (Transcreener ADP, fluorescence polarization)
Conditions: Ki app from tight-binding Morrison equation; 50 nM enzyme, 50 uM ATP, 2 hours incubation
Experimental: RIP1 Kinase Inhibition Assays (Biochemical Assay)
The compounds of the present invention were tested for their capacity to inhibit RIP1K activity as described below.
The ability of the receptor interacting protein kinase (RIPK1) to catalyze the hydrolysis of adenosine-5′-triphosphate (ATP) is monitored using the Transcreener ADP (adenosine-5′-diphosphate) assay (BellBrook Labs). Purified human RIP1 kinase domain (2-375) (50 nM) derived from a baculovirus-infected insect cell expression system is incubated with test compounds for 2 hours in 50 mM Hepes buffer (pH 7.5) containing 30 mM MgCl2, 1 mM dithiothreitol, 50 uM ATP, 0.002% Brij-35, and 0.5% dimethyl sulfoxide (DMSO). Reactions are quenched by the addition of 1× Bell Brooks Stop buffer B (20 mM Hepes (ph7.5), 40 mM ethylenediaminetetraacetic acid and 0.02% Brij-35) containing an additional 12 mM EDTA and 55 ug/mL ADP2 antibody and 4 nM ADP-AlexaFluor® 633 tracer. The tracer bound to the antibody is displaced by the ADP generated during the RIP1K reaction, which causes a decrease in fluorescence polarization that is measured by laser excitation at 633 nm with a FP microplate reader M1000. Fractional activity was plotted against test article concentration. Using Genedata Screener software (Genedata; Basel, Switzerland), the data were fit to the tight-binding apparent inhibition constant (Ki^app) Morrison equation [Williams, J. W. and Morrison, J. F. (1979) The kinetics of reversible tight-binding inhibition. Methods Enzymol 63: 437-67]. The following equation was used to calculate fractional activity and Ki^app:
[formula] where [E]T and [I]T are the total concentrations of active enzyme and test article, respectively.
Exemplary compounds of the present invention are provided in Table 1 along with their physiochemical characterization and in vitro RIP1 kinase inhibitory activity data. “Method” in the first column of each table refers to the synthetic method(s) used to prepare each compound as shown in the Examples above. In certain examples, chiral column retention times (min) are provided for certain stereoisomers. Unless otherwise specified, the stereochemistry shown in each structure represents relative configuration of a single stereoisomer, and absolute configuration (i.e., “R” and/or “S”) is arbitrarily assigned. In some embodiments, where the Method is described to include the separation of stereoisomers, a single stereoisomer of a compound of Table 1 is provided.

Sequence of human RIP1 kinase domain (2-375) (Q13546 2-375): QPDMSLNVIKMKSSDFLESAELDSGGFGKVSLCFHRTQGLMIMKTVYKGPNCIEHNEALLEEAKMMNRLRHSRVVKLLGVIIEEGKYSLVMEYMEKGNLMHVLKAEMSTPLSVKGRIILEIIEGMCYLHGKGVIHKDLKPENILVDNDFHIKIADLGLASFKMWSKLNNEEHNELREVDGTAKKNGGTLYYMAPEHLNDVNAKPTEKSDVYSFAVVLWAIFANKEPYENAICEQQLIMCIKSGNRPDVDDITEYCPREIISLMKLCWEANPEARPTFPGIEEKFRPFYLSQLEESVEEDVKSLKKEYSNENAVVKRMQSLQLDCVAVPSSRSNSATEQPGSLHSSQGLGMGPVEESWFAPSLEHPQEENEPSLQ

SMILES	Ki [nM]
N#CC[S@+]([O-])c1cc2n(n1)[C@H](c1ccccc1)C[C@@H]2F (single isomer, unassigned) [Example 92]	19
O=S(=O)(c1nc2n(n1)[C@H](c1ccc(F)c(F)c1)C[C@@H]2F)[C@@H]1C[C@H]1F (single isomer, unassigned) [Example 144]	9
[O-][S@@+](CF)c1nc2n(n1)[C@H](c1ccccc1F)C[C@@H]2F (single isomer, unassigned) [Example 74]	< 5
O=S(=O)(c1nc2n(n1)[C@H](c1cc(F)cc(Cl)c1)C[C@@H]2F)C1CC1F (stereo in doubt) [Example 200, (5S,7S)-5-(3-chloro-5-fluoro-phenyl)-7-fluoro-2-[(1R,2R)-2-fluorocyclopropyl]sulfonyl-6,7-dihydro-5H-pyrrolo[1,2-b][1,2,4]triazole]	48
O=S(=O)(c1nc2n(n1)[C@H](c1cccc(F)c1F)C[C@@H]2F)[C@H]1C[C@@H]1F (single isomer, unassigned) [Example 217]	6
O=S(=O)(Cc1ccccc1)c1nc2n(n1)[C@H](c1ccccc1)C[C@@H]2F (single isomer, unassigned) [Example 19]	15
O=S(=O)(c1nc2n(n1)[C@H](c1ccccc1)C[C@@H]2F)[C@H]1CC1(F)F [Example 130, (5S,7S)-2-(((S)-2,2-difluorocyclopropyl)sulfonyl)-7-fluoro-5-phenyl-6,7-dihydro-5H-pyrrolo[1,2-b][1,2,4]triazole]	3
[O-][S@@+](c1nc2n(n1)[C@H](c1ccccc1)C[C@@H]2F)C(F)(F)F (single isomer, unassigned) [Example 180]	300
[O-][S@+](CC1CC1)c1nc2n(n1)[C@H](c1ccccc1)C[C@@H]2F (single isomer, unassigned) [Example 184]	130
O=S(=O)(c1nc2n(n1)[C@H](c1ccccc1)C[C@@H]2F)C1COC1 (single isomer, unassigned) [Example 228]	6
O=S(=O)(c1nc2n(n1)[C@H](c1ccccc1)C[C@@H]2F)[C@H]1C[C@H](OC(F)F)C1 [Example 213, (5S,7S)-2-trans-[3-(difluoromethoxy)cyclobutyl]sulfonyl-7-fluoro-5-phenyl-6,7-dihydro-5H-pyrrolo[1,2-b][1,2,4]triazole]	6
CS(=O)(=O)c1nc2n(n1)C(c1ccccc1)CC2 (racemic) [Example 9]	1040
CC[S@+]([O-])c1nc2n(n1)[C@H](c1ccccc1)CC2 [Example 3, (5S)-2-[(S)-ethylsulfinyl]-5-phenyl-6,7-dihydro-5H-pyrrolo[1,2-b][1,2,4]triazole]	162
N#CC[S+]([O-])c1nc2n(n1)[C@H](c1ccccc1)C[C@@H]2F (stereo partly drawn) [Example 102, 2-[[(5S,7S)-7-fluoro-5-phenyl-6,7-dihydro-5H-pyrrolo[1,2-b][1,2,4]triazol-2-yl]sulfinyl]acetonitrile]	18
O=S(=O)(c1nc2n(n1)[C@@H](c1ccccc1)C[C@H]2F)C1CC1 (single isomer, unassigned) [Example 14]	980
O=S(=O)(c1nc2n(n1)[C@H](c1cc(F)ccc1F)C[C@@H]2F)[C@@H]1CC1(F)F (single isomer, unassigned) [Example 127]	6
N#C[C@H]1C[C@@H]1S(=O)(=O)c1nc2n(n1)[C@H](c1ccccc1)C[C@@H]2F [Example 209, (1R,2S)-2-[[(5S,7S)-7-fluoro-5-phenyl-6,7-dihydro-5H-pyrrolo[1,2-b][1,2,4]triazol-2-yl]sulfonyl]cyclopropanecarbonitrile]	< 5
N#CC[S@@+]([O-])c1nc2n(n1)[C@H](c1ccc(F)cc1)C[C@@H]2F (single isomer, unassigned) [Example 100]	3
[O-][S+](c1nc2n(n1)[C@H](c1ccccc1)C[C@@H]2F)C(F)F (mixture of isomers) [Example 13, Rac-(5S,7S)-2-((difluoromethyl)sulfinyl)-7-fluoro-5-phenyl-6,7-dihydro-5H-pyrrolo[1,2-b][1,2,4]triazole]	42
O=S(=O)(c1nc2n(n1)[C@H](c1cc(F)cc(F)c1F)C[C@@H]2F)C1CC1 (single isomer, unassigned) [Example 39]	6
O=S(=O)(c1nc2n(n1)[C@H](c1ccccc1F)C[C@@H]2F)[C@@H]1CC1(F)F (single isomer, unassigned) [Example 124]	< 5

SMILES	Ki [nM]
O=S(=O)(c1nc2n(n1)[C@H](c1ccccc1)C[C@@H]2F)C1CC1(F)F (mixture of isomers) [Example 118, (5S,7S)-2-((2,2-difluorocyclopropyl)sulfonyl)-7-fluoro-5-phenyl-6,7-dihydro-5H-pyrrolo[1,2-b][1,2,4]triazole]	4
N#CCSc1nc2n(n1)[C@H](c1ccccc1)C[C@@H]2F (single isomer, unassigned) [Example 89]	10
[O-][S+](Cc1ccccc1)c1nc2n(n1)[C@H](c1ccccc1)C[C@@H]2F (stereo partly drawn) [Example 20, (5S,7S)-2-benzylsulfinyl-7-fluoro-5-phenyl-6,7-dihydro-5H-pyrrolo[1,2-b][1,2,4]triazole]	24
O=S(=O)(c1nc2n(n1)[C@H](c1ccc(F)c(F)c1)C[C@@H]2F)[C@H]1C[C@@H]1F (single isomer, unassigned) [Example 143]	31
CC1(S(=O)(=O)c2nc3n(n2)[C@H](c2ccccc2)C[C@@H]3F)CC1(F)F (stereo partly drawn) [Example 167, (5S,7S)-2-((2,2-difluoro-1-methylcyclopropyl)sulfonyl)-7-fluoro-5-phenyl-6,7-dihydro-5H-pyrrolo[1,2-b][1,2,4]triazole]	12
CC(C)(C)[S+]([O-])c1nc2n(n1)[C@H](c1ccccc1)C[C@@H]2F (stereo partly drawn) [Example 24, (5S,7S)-2-(tert-butylsulfinyl)-7-fluoro-5-phenyl-6,7-dihydro-5H-pyrrolo[1,2-b][1,2,4]triazole]	20
[O-][S+](c1nc2n(n1)[C@H](c1cc(F)cc(F)c1)CC2)C(F)F (stereo in doubt) [Example 174, (5S)-2-[(R)-difluoromethylsulfinyl]-5-(3,5-difluorophenyl)-6,7-dihydro-5H-pyrrolo[1,2-b][1,2,4]triazole]	310
CCS(=O)(=O)c1nc2n(n1)[C@H](c1ccccc1)C[C@@H]2F (single isomer, unassigned) [Example 108]	11
O=S(=O)(c1nc2n(n1)[C@H](c1cccc(Cl)c1)C[C@@H]2F)C(F)F (single isomer, unassigned) [Example 61]	39
CC(C)(C)S(=O)(=O)c1nc2n(n1)[C@H](c1ccccc1)C[C@@H]2F (single isomer, unassigned) [Example 25]	32
O=S(=O)(c1nc2n(n1)[C@H](c1ccccc1)C[C@@H]2F)C1CCOC1 (stereo partly drawn) [Example 166, (5S,7S)-7-fluoro-5-phenyl-2-tetrahydrofuran-3-ylsulfonyl-6,7-dihydro-5H-pyrrolo[1,2-b][1,2,4]triazole]	43
O=S(=O)(c1nc2n(n1)[C@H](c1ccccc1F)C[C@@H]2F)C(F)(F)F (single isomer, unassigned) [Example 133]	4
CC1(S(=O)(=O)c2nc3n(n2)[C@H](c2ccccc2)C[C@@H]3F)CC1 (single isomer, unassigned) [Example 150]	21
[O-][S@+](c1nc2n(n1)[C@H](c1cccc(F)c1)C[C@@H]2F)C(F)F (single isomer, unassigned) [Example 182]	6
O=S(=O)(c1nc2n(n1)[C@H](c1ccccc1F)C[C@@H]2F)[C@H]1CC1(F)F (single isomer, unassigned) [Example 119]	7
[O-][S+](c1nc2n(n1)C(c1ccccc1)CC2)C(F)(F)F (centres unmarked) [Example 10, 5-phenyl-2-(trifluoromethylsulfinyl)-6,7-dihydro-5H-pyrrolo[1,2-b][1,2,4]triazole]	89
O=S(=O)(c1nc2n(n1)[C@H](c1cc(Cl)ccc1F)C[C@@H]2F)C1CC1 (single isomer, unassigned) [Example 47]	67
[O-][S@+](c1nc2n(n1)[C@H](c1ccccc1)C[C@@H]2F)C(F)(F)F (single isomer, unassigned) [Example 181]	4
O=S(=O)(c1nc2n(n1)[C@H](c1cc(Cl)ccc1F)C[C@@H]2F)C1CC1F (stereo in doubt) [Example 218, (5S,7S)-5-(5-chloro-2-fluoro-phenyl)-7-fluoro-2-[(1R,2R)-2-fluorocyclopropyl]sulfonyl-6,7-dihydro-5H-pyrrolo[1,2-b][1,2,4]triazole]	140
[O-][S@+](CF)c1nc2n(n1)[C@H](c1cc(F)cc(F)c1)C[C@@H]2F (single isomer, unassigned) [Example 85]	180
